The values that follow come from ChEMBL document CHEMBL1201862, “PubChem BioAssay data set” (2004).

The subject of one assay is HEK293. Description: viability loss in HEK293T cells – cell-based, ATP luminescence, cherry-pick samples, cytotoxicity control, dose response (AID 687005).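 Further: cells exposed to compound for 48 hours.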 The class given is functional. As to conditions: Homo sapiens.
Assay [1] in a line: HEK293 Cytotoxicity Assay Measured in Cell-Based System Using Plate Reader - 7071-01_Inhibitor_Dose_CherryPick_Activity_Set2. The class given is functional.
The next assay has as its target Transthyretin (Homo sapiens, UniProt P02766). Description: Luminescence-based cell-based high throughput dose response assay to identify activators of Transthyretin (TTR) transcription. The class given is functional.
Assay [2] addresses Eukaryotic translation initiation factor 4E (Mus musculus, UniProt P63073). Description: blockers of eIF4G binding by eIF4E – biochemical, TR-FRET, dose response (AID 855).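 Further: potency for disrupting eIF4E binding to eIF4GI seen as loss of FRET.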 The class given is functional.
Assay [3] is described as follows: reduced cellular PGC1a acetyl-lysine signal – cell-based, cherry-picked samples, dose response (AID 720514).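 Further: potency may reflect raised or lowered acetylation signal.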 The class given is functional.
In a further assay the target is ELAV-like protein 1 (Homo sapiens, UniProt Q15717). Description: Identify HuR specific inhibitors. The class given is functional.
Chain of ELAV-like protein 1 (Q15717 whole entry): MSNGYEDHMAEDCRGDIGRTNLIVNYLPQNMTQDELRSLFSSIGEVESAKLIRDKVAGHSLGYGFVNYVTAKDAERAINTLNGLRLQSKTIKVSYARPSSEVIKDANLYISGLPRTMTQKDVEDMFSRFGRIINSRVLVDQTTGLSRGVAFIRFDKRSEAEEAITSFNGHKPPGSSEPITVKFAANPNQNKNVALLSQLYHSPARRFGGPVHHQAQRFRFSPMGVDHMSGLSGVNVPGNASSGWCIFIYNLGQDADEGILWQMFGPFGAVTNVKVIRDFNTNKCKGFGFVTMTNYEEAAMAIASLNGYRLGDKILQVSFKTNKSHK
The target in assay [4] is NAD-dependent protein deacylase sirtuin-5, mitochondrial (Homo sapiens, UniProt Q9NXA8). Description: sirtuin-5 deacylation blockers, concentration series – biochemical, fluorescence imaging, cherry-pick, set 5, dose response (AID 720591).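 Further: desuccinylation of succinyl peptide AMC substrate read as fluorescence after trypsin release; potency of inhibitors that lower fluorescence and may act on trypsin instead.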
Chain of NAD-dependent protein deacylase sirtuin-5, mitochondrial (Q9NXA8 whole entry): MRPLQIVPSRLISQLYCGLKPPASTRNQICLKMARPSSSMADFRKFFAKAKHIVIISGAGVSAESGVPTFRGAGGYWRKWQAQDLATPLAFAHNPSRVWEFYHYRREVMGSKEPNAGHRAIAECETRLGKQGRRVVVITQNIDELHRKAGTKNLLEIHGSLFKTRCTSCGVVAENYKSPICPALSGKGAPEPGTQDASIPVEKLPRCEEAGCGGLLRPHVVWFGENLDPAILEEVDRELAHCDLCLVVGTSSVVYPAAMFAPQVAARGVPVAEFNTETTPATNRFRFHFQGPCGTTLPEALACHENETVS
Assay [5] can be described thus: A2780 cell killing – plate reader, dry powder samples, cytotoxicity control, dose response (AID 743046). The class given is functional, cell-based.
The nature of assay [6]: OVCAR8 cell viability loss – plate reader, dry powder samples, PAX8 project, dose response (AID 743197). The class given is functional, cell-based. Particulars: OVCAR-8.

Activity calls are given as the source filed them.

Chain of Eukaryotic translation initiation factor 4E (P63073 whole entry): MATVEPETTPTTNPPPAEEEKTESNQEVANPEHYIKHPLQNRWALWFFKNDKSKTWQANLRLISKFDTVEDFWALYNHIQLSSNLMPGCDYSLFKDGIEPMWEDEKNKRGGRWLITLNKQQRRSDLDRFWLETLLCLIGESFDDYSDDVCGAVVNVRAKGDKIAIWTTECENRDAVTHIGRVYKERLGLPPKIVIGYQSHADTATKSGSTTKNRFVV

The AC50 is the concentration at which the activity in the assay is half-maximal. In the case of `C[C@H]1CN([C@@H](C)CO)S(=O)(=O)c2ccc(Br)cc2O[C@H]1CN(C)S(=O)(=O)c1ccccc1F`, the AC50 (with HEK293; in [1]) was 37.9 µM (active) in each case.
The EC50 is the concentration at which the effect is half-maximal. `Cn1nccc1C(=O)N1CCc2ccccc21`: the EC50 at Transthyretin was > 167 µM (inactive).
Broadly, the IC50 is the concentration that inhibits the measured activity by half. As to `COCCSc1ccccc1C(=O)Nc1cc(C)on1`, the IC50 in assay [2] was > 64 µM (inactive). Besides, in assay [3], the AC50 was 1.06 µM (active).
As for `CSC1=NC(=O)/C(=N\Nc2ccc([As](=O)(O)O)cc2)C(N)=N1`, the IC50 at ELAV-like protein 1 is 2.7 µM (inactive).
`Nc1nc(CSc2ccc(Cl)cc2)nc(N2CCCCC2)n1`: in assay [4], the AC50 is 26.5 µM (active).
`C[C@H]1CN([C@@H](C)CO)C(=O)c2cccc(NC(=O)Nc3ccc(C(F)(F)F)cc3)c2O[C@H]1CN(C)C(=O)NC1CCCCC1`: the AC50 is 11.9 µM (active) in assay [5] and > 70 µM (inactive) in assay [6].
